System: HUVECs
Test: 2D angiogenesis assay, HUVECs on the hydrogel surface
Type: cell-based, human
Description: Angiogenesis and vascularization assays were adopted to optimize hydrogels with RGD. For the two-dimensional (2D) culture of HUVECs, cells (4×10^4/well in a 96-well plate) were plated on the surface of HA hydrogels (40 μL; HA-SH: 4 mg/mL and PEGDA: 5 mg/mL) with various concentrations of RGD (0, 0.01, 0.1, and 1 mM). Matrigel was used as a positive control. After 24 h, HUVECs were imaged after LIVE/DEAD staining. As for the 3D cell culture, to avoid cell precipitation onto the surface of the plate, the plate was first coated with the hydrogels (40 μL hydrogel; HA-SH: 4 mg/mL, PEGDA: 2 mg/mL, F127-SS-DA: 4 mg/mL; RGD: 0, 0.10, 0.25, and 0.50 mM). Then, HUVECs and hASCs mixed with hydrogel precursor solutions (0.75×10^6/mL hydrogel; 40 μL hydrogel) were plated on top of hydrogels. In addition, both cells were cultured inside hydrogels with F127-SS-DA or F127-DA (40 μL; HA-SH: 4 mg/mL, PEGDA: 2 mg/mL, RGD: 0.1 mM; F127-DA or F127-SS-DA: 2, 4, 8, 10, 20, and 50 mg/mL). The cells were imaged after immunostaining for F-actin. […]
Cell viability was examined with a LIVE/DEAD staining kit and then the images were captured by a Zeiss LSM 880 laser scanning confocal microscope. The cell morphology was also evaluated by immunostaining with Alexa Fluor Phalloidin 568 or 488 for F-actin and 4′,6-diamidino-2-phenylindole dihydrochloride (DAPI, Molecular Probes) for cell nuclei.

RGD
endothelial cell layer on the hydrogel surface (RGD at 1 mM): supported the formation of a full layer of endothelial cells
endothelial cell adhesion (RGD conjugated to a hyaluronic acid-based hydrogel, FIG. 18): improved endothelial cell adhesion in a dose-dependent manner

Reference: US20240138838A1, “SURFACE-MODIFIED ANASTOMOSIS DEVICE” (Washington University, priority 2022, published 2024)
